The record followed here is the supplement of paper PMC3493320.

By IC50 is commonly meant the concentration at which inhibition is half-maximal. A low value points to higher potency.

The subject of this assay is NCI-H295R. Put plainly: IC50 (antiproliferative, ATP content). As to conditions: 48 h. The method in brief:
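Following overnight culture of adrenocortical carcinoma cells (1500 per well) in 1536-well plates with serum-free ITS-supplemented DMEM, library compounds were pin-transferred at 8 final concentrations from 0.6 nM to 46 µM. Incubation lasted 48 h at 37 °C, 5% CO2, and the CellTiter-Glo signal was read after 20 min at room temperature. Data were fitted with a four-parameter logistic model. Each IC50 came from that fit after normalisation to vehicle and positive-control wells, and compounds without a concentration response were reported as above the top dose.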
`OCCOc1ccccc1` came in with an IC50 of over 46 µM.
As for `Cc1cccc(N(C)C(=S)Oc2ccc3ccccc3c2)c1`, the half-inhibitory concentration (IC50) was over 46 µM.
Regarding `O=C1c2c(O)cccc2Cc2cccc(O)c21`, the IC50 is over 46 µM.
On to `CN1C(CCl)Nc2cc(Cl)c(S(N)(=O)=O)cc2S1(=O)=O` (stereo unspecified), for which the IC50 is over 46 µM.
The same measure for `CNc1cc(OC)c(C(=O)N[C@H]2CCN(Cc3ccccc3)[C@H]2C)cc1Cl`: over 46 µM; for `NS(=O)(=O)c2cc1c(/N=C\NS1(=O)=O)cc2Cl`: over 46 µM; for `CC[C@H]1OC(=O)[C@H](C)C(=O)[C@H](C)[C@@H](O[C@@H]2O[C@H](C)C[C@H](N(C)C)[C@H]2O)[C@](C)(OC)C[C@@H](C)C(=O)[C@H](C)[C@H]2N(CCCCn3cnc(-c4cccnc4)c3)C(=O)O[C@]12C`: over 46 µM.
Consider `Cc1ccc(S(=O)(=O)NC(=O)NC2CCCC2)cc1`, for which the IC50 was over 46 µM.
For `CCN1CCC[C@H]1CNC(=O)c1c(O)c(Cl)cc(Cl)c1OC` the value was over 46 µM; for `CN1CCC\C(C1)=C(/C2=CC=CS2)C3=CC=CS3`, over 46 µM; for `CCCCNC(=O)NS(=O)(=O)c1ccc(N)cc1`, over 46 µM.
Take `CC(=O)OCC(=O)C1CCC2C3CCC4CC(O)CCC4(C)C3C(=O)CC12C` (stereo unspecified): the half-maximal inhibitory concentration (IC50) is over 46 µM.
For `CN1C(=O)CCS(=O)(=O)C1c1ccc(Cl)cc1` (stereo unspecified) the value was over 46 µM; for `NC1CCCCC1.NC1CCCCC1.O=P(O)(O)OC[C@H](O)CO`, over 46 µM.
With `CCCc1ncc(C[n+]2ccccc2C)c(N)n1.Cl.[Cl-]`, the 50% inhibitory concentration (IC50) was over 46 µM.
The same measure for `CN1CCC(OC(=O)C(Oc2ccc(Cl)cc2)Oc2ccc(Cl)cc2)CC1`: over 46 µM.
The same measure for `Oc1ccc(Cl)c2c1CCC2`: over 46 µM; for `CC(=O)N(CC(O)CO)c1c(I)c(C(=O)NCC(O)CO)c(I)c(C(=O)NCC(O)CO)c1I` (stereo unspecified): over 46 µM.
`Nc1nccs1` returned a half-inhibitory concentration (IC50) of over 46 µM.
As for `CC(C)(Oc1ccc(C2CC2(Cl)Cl)cc1)C(=O)O` (stereo unspecified), the IC50 was over 46 µM.
For `CN[C@@H]1[C@H](O[C@H]2[C@H](O[C@H]3[C@H](O)[C@@H](O)[C@H](NC(=N)N)[C@@H](O)[C@@H]3NC(=N)N)O[C@@H](C)[C@]2(O)CO)O[C@@H](CO)[C@H](O)[C@H]1O.CN[C@@H]1[C@H](O[C@H]2[C@H](O[C@H]3[C@H](O)[C@@H](O)[C@H](NC(=N)N)[C@@H](O)[C@@H]3NC(=N)N)O[C@@H](C)[C@]2(O)CO)O[C@@H](CO)[C@H](O)[C@H]1O.O=S(=O)(O)O.O=S(=O)(O)O.O=S(=O)(O)O` the value was over 46 µM.
The same measure for `NCC(CC(=O)O)c1ccc(Cl)cc1` (stereo unspecified): over 46 µM; for `CCCCCCCCCCCCOCCCN`: over 46 µM; for `COc1ccc(-c2noc(CC(=O)O)c2-c2ccc(OC)cc2)cc1`: over 46 µM.
The same measure for `CCCCCCCCCCCCCC(=O)OC(C)C`: over 46 µM; for `C[N+](C)(C)CCOC(=O)CCC(=O)OCC[N+](C)(C)C.[Cl-].[Cl-]`: over 46 µM; for `CC(=O)Oc1ccc(C2(c3ccc(OC(C)=O)cc3)C(=O)Nc3ccccc32)cc1`: over 46 µM.
The molecule `CCCN1CCC[C@H](c2cccc(O)c2)C1.Cl` had an IC50 of over 46 µM.
For `C[N+](C)(C)CC[N+]1(C)Cc2c(Cl)c(Cl)c(Cl)c(Cl)c2C1.[Cl-].[Cl-]` the value was over 46 µM.
The same measure for `Clc1ccc(Cl)cc1`: over 46 µM; for `Nc1ccc(S(=O)(=O)NCc2ccccc2)cc1`: over 46 µM.
For `Cc1c[nH]c2ccccc12` the value was over 46 µM; for `O=C(CCCN1CCN(c2ccccn2)CC1)c1ccc(F)cc1`, over 46 µM; for `CNC(C)(C)Cc1ccccc1.CNC(C)(C)Cc1ccccc1.O=S(=O)(O)O`, over 46 µM.
`COc1ccccc1N1CCN(CCCCNC(=O)c2ccc(-c3ccc(C(C)=O)cc3)cc2)CC1` returned an IC50 of over 46 µM.
The same measure for `CC(C)CCC[C@@H](C)[C@H]1CC[C@H]2[C@@H]3CC[C@@H]4C[C@H](O)CC[C@]4(C)[C@H]3CC[C@]12C`: over 46 µM; for `CN(C)CC/C=C1C(C=CC=C3)=C3C=CC2=C\1C=CC=C2.Cl`: over 46 µM.
The same measure for `COc1ccc(C[C@H](C)NC[C@@H](O)c2ccc(O)c(NC=O)c2)cc1.COc1ccc(C[C@H](C)NC[C@@H](O)c2ccc(O)c(NC=O)c2)cc1.O=C(O)/C=C/C(=O)O`: over 46 µM; for `CCOC(=O)NC(O)C(Cl)(Cl)Cl` (stereo unspecified): over 46 µM.
For `NC(=O)NNc1ccccc1` the value was over 46 µM.
Molecule `Cc1nc(Nc2ncc(C(=O)Nc3c(C)cccc3Cl)s2)cc(N2CCN(CCO)CC2)n1` had an IC50 of over 46 µM.
The same measure for `CC[N+](C)(CC)CCOC(=O)C1c2ccccc2Oc2ccccc21.[Br-]`: over 46 µM; for `CCOC(=O)C(C)(C)Oc1ccc(Cl)cc1`: over 46 µM; for `CN(C)[C@@H]1C(O)=C(C(N)=O)C(=O)[C@@]2(O)C(O)=C3C(=O)c4c(O)ccc(Cl)c4[C@@H](O)[C@H]3C[C@@H]12.Cl`: over 46 µM.
The same measure for `O=[C@@](OC)[C@H]([C@H]3OC)[C@@]2([H])C[C@](N4C[C@]([H])2C[C@H]3OC(C=CC6=CC(OC)=C(OC)C(OC)=C6)=O)([H])C1=C(CC4)C(C=C5)=C(C=C5OC)N1`: over 46 µM; for `CC[C@@H](C)[C@H](N)C(=O)O`: over 46 µM.
The same measure for `CC(C)(CO)C(O)C(=O)NCCC(=O)NCCSSCCNC(=O)CCNC(=O)C(O)C(C)(C)CO` (stereo unspecified): over 46 µM; for `C[Se]CCC(N)C(=O)O` (stereo unspecified): over 46 µM; for `CNC(=O)Oc1cccc2ccccc12`: over 46 µM.
`CN1C(=S)CN=C(c2ccccc2)c2cc(Cl)ccc21` gave a concentration for half-maximal inhibition (IC50) of over 46 µM.
For `CN(C)CCN1C(=O)c2ccccc2N(C)c2ccccc21.Cl` the value was over 46 µM; for `O=C(O)C=CC(=O)Nc1ccc(S(=O)(=O)Nc2nccs2)cc1`, over 46 µM; for `N[C@H](CC(=O)O)C(=O)O`, over 46 µM.
For `CC(=O)CC(c1ccccc1)c1c([O-])c2ccccc2oc1=O.[K+]` (stereo unspecified) the value was over 46 µM.
`CC1NCCOC1c1ccccc1.Cl` (stereo unspecified) came in with a concentration for half-maximal inhibition (IC50) of over 46 µM.
The same measure for `Nc1ccc(S(=O)(=O)NC(=O)c2ccccc2)cc1`: over 46 µM.
As for `CNC[C@H](O)c1cccc(O)c1.Cl`, the half-inhibitory concentration (IC50) is over 46 µM.
For `Nc1ccc(S(=O)(=O)Nc2cnc3ccccc3n2)cc1` the value was over 46 µM; for `O=C(O)C1=CC2=C(C=CC=C2)C(CC3=C(O)C(C(O)=O)=CC4=C3C=CC=C4)=C1O.O=C([C@H](NC([C@@H](NC([C@@H](NC([C@@H](NC([C@@H](N[C@]([C@@H](N%11)CCC%11=O)=O)CC%10=CNC=N%10)=O)CC8=CNC9=CC=CC=C89)=O)CO)=O)CC7=CC=C(C=C7)O)=O)CC5=CNC6=CC=CC=C56)N[C@H](C(N[C@H](C(N%12CCC[C@@H]%12[C@@](NCC(N)=O)=O)=O)CCCNC(N)=N)=O)CC(C)C`, over 46 µM; for `CC(C)N(CCC(C(N)=O)(c1ccccc1)c1ccccn1)C(C)C` (stereo unspecified), over 46 µM.
For `O=C1NS(=O)(=O)c2ccccc21` the value was over 46 µM.
